Each structure is given as a SMILES string. Marks after values point to notes of the source that are not given here.

One compound from patent US20140170159A9, “Conditionally active anti-epidermal growth factor receptor antibodies and methods of use thereof” (priority 2012, published 2014) can be followed below.

Assay [1] deals with A431 xenograft tumors. Description: A431 xenograft tumor growth, Cetuximab vs. HC-Y104D and cisplatin. Particulars: 5 mg/kg cisplatin IV twice per week, day 14. The assay is classed as in vivo, male nude mice.
Method: Subcutaneous A431 xenograft tumors were established in male nude mice as described above. […] Specifically, the test article(s) were administered on days 0, 4, 7 and 11. Tumor volume (mm^3) was determined on days—1, 4, 7, 11 and 14 as described previously.
Assay [2] has as its system A431 xenograft tumors. In words: A431 xenograft tumor growth, Cetuximab and cisplatin combination. The assay is classed as in vivo, male nude mice. The settings on record: day 14.
Method: Specifically, the test article(s) were administered on days 0, 4, 7, 11, and 14.
Tumor growth, measured as tumor volume (mm^3), was determined on days—1, 4, 7, 11 and 14 using digital calipers and calculation as described in Example 8. Tumor growth inhibition (TGI) for the treatment groups was calculated using the formula: % TGI=[1−(TB−TA)/(CB−CA)]×100; where TB is the average tumor volume (mm^3) in the treatment group at day 14, TA is the average tumor volume (mm^3) in the treatment group the day before the first treatment (day—1), CB is the average tumor volume in the vehicle only control group at day 14, and CA is the average tumor volume in the vehicle only control group the day before the first treatment (day—1) (see, e.g., Teicher B A and Andrews P A: Anticancer Drug Development, Guide: Preclinical Screening, Clinical Trials and Approval, 2nd edition.

In the case of `N.N.[Cl][Pt][Cl]` [cisplatin], the “reduction in tumor growth” value with A431 xenograft tumors [1] is listed as “about 45%”. Moreover, the “tumor growth inhibition (TGI)” value with A431 xenograft tumors [2] (5 mg/kg cisplatin alone) came out at 34.2%. In addition, the figures for the “% Tumor Growth Inhibition” value in the assay on A431 xenograft tumors [2] (Cisplatin 5 mg/kg ([…]) IV twice per week) and with A431 xenograft tumors [2] (Cisplatin […] (0.04 mg/mouse) IV twice per week) were 34.2* % and 16.7%, respectively.
